Assay results taken from article PMC6973020, “Quinoline‐Conjugated Ruthenacarboranes: Toward Hybrid Drugs with a Dual Mode of Action” (Chemmedchem, 2019).

Key:
[1] = tested on: U251 and LN229 cell lines; experiment: Cell viability assays (MTT, CV), summary for glioma and glioblastoma lines; format: cell-based, human; conditions: 72 h
From the text: Thus, care must be taken when comparing their biological activities with those of our previous studies, even with the same cell line, because the covalent vs. non‐covalent combination of drugs might imply different mechanisms of action in the cell.44 Here, we studied the in vitro activity of ruthenacarborane 3, i. e. free acid, and its 8‐hydroxyquinolyl (4) and 4‐{(7‐chloroquinolin‐4‐yl)oxy}butanol‐1‐yl (5) esters, against a panel of cancer cell lines (B16 mouse melanoma, A375 human skin melanoma, MCF‐7 human breast adenocarcinoma, LN229 human glioblastoma, U251 human glioma). Human fibroblast cell line MRC‐5, murine microglial cell line BV‐2 as well as peritoneal exudate cells (Mph), were chosen as models for non‐malignant cells. […] On the other side, we wanted to assess the reproducibility of the viability data, under either controlled (with BSA) or uncontrolled (without BSA) conditions, in two sets of independent assays. […] Cells were exposed to 3–5 for 72 h, after which cell viability was determined via 3‐(4,5‐dimethylthiazol‐2‐yl)‐2,5‐diphenyltetrazolium bromide (MTT) and crystal violet (CV) assays, in parallel (Table 2). Cisplatin was also tested as reference.
Preparation of drug solutions. […] Stock solution of cisplatin was prepared in DMF (10 mM) immediately before use. A stock solution of BSA in PBS was prepared at 1.28 mM concentration, and stored at 4 °C in the dark. […] Alternatively, 3 or 4 (DMSO stock solution) were added to the BSA solution in PBS, always with a 10 : 1 molar ratio of BSA to ruthenacarborane. […]
Colorimetric assays for cellular viability. […] The absorbance was measured with an automated microplate reader at λmax 540 nm, with the reference λmax 670 nm. Untreated cells or cells treated only with BSA (control) were also measured, as reference for BSA‐free and BSA‐containing drug formulations, respectively. […] Cell viability is expressed as percentage (%) relative to control (untreated cultures).58 Experiments were run in three independent replicates. […]

[2] = tested on: MCF‐7 cells; experiment: AO staining (acidic vacuoles, autophagy), MCF‐7; format: cell-based, human; conditions: MCF‐7, 20 μM, 72 h
Protocol: Flow cytometry. For gaining better insights into the mechanisms of action of the ruthenium complexes, MCF‐7 and LN229 cells incubated with an IC50 dose of 3 or 4, were analyzed via flow cytometry. Several staining protocols were carried out in parallel, in independent experiments: i) AnnV/PI for the detection of apoptotic cell death, ii) AO for the detection of acidic vacuoles, iii) ApoStat for checking caspase activation, iv) CFSE for detecting interference with cellular proliferation, and v) DAPI for the detection of morphological signs of apoptosis. Untreated cells or cells treated only with BSA (control) were also measured, as reference for BSA‐free and BSA‐containing drug formulations, respectively. […] Channels FL1 (green emission), FL2 (orange emission) and/or FL3 (dark red emission) were used for fluorescence detection, according to the specific staining agent. Sideward Scatter (SSC) for MCF‐7 cells treated with 4 or BSA−4 was also analyzed, with respect to the control, for detection of shifts of cell granularity. […]
FCS, 2 mM L‐glutamine, 0.01% sodium pyruvate and antibiotics, at 37 °C in a humidified atmosphere with 5% CO2. […] Cells were counted and seeded in 96‐well plates and incubated overnight, as described above. […]
Staining Protocols for Flow Cytometric Analysis. […] Finally, cells were washed in PBS, resuspended in PBS (or AnnV‐binding buffer for AnnV/PI), and analysed. […]

Substance | IC50 ([1]; range over both cell lines, depending on assay and formulation type, read-out: IC50 concentrations against U251 and LN229) [µM] | autophagy (AO staining) [2] | activity against LN229 and U251 (in words) ([1]; concentration range tested up to 100 μM)
closo ‐[3‐(η^6‐p‐Cymene)‐1‐(quinolin‐8‐yl‐acetate)‐3,1,2‐RuC2B9H10] [Compound 4] | 33 to 45 | suppressed autophagy | 
closo‐ [Compound 3, closo‐ [3‐(η^6‐p‐Cymene)‐1‐(CH2COOH)‐3,1,2‐RuC2B9H10]] |  | strongly amplified autophagic processes | inactive
